Experimental findings from patent publication US10975077B2 (Novira Therapeutics, Inc., priority 2016, dated 2021) are described below.

The test system of the assay is HBV (encapsidated HBV DNA, HepG2.2.15 cells). The assay can be described thus: HBV replication inhibition assay, BDNA assay in HepG2.2.15 cells. The settings on record: Hepatitis B virus, HepG2.2.15, Activity in BDNA-assay. The class given is cell-based. Summed up: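 Encapsidated HBV DNA in DNase-treated, proteinase K-lysed supernatant was measured by branched DNA after 6 days' compound exposure, refreshed on day 3, of HepG2.2.15 cells in 0.5% DMSO. Signals normalized to DMSO-treated wells; EC50 from nonlinear regression of inhibition against log concentration.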
With `CSC1CN(C)C(=O)c2c3c(nn2C1)CCN(C(=O)Nc1ccc(F)c(Cl)c1)C3` (centres unmarked) [Compound 025, N-(3-chloro-4-fluorophenyl)-10-methyl-8-(methylthio)-11-oxo-1,3,4,7,8,9,10,11-octahydro-2H-pyrido[4′,3′:3,4]pyrazolo[1,5-a][1,4]diazepine-2-carboxamide], the EC50 lay within 0.001 to 0.1 µM.

On to `CN1CC(S(C)(=O)=O)Cn2nc3c(c2C1=O)CN(C(=O)Nc1ccc(F)c(Cl)c1)CC3` (centres unmarked) [Compound 027, N-(3-chloro-4-fluoro-phenyl)-10-methyl-8-methylsulfonyl-11-oxo-1,3,4,7,8,9-hexahydropyrido[2,3]pyrazolo[2,4-b][1,4]diazepine-2-carboxamide], for which the EC50 lay in the range of 0.001 to 0.1 µM.

In the case of `COC(=O)CC1CN(C)C(=O)c2c3c(nn2C1)CCN(C(=O)Nc1ccc(F)c(Cl)c1)C3` (centres unmarked) [Compound 028, methyl 2-(2-((3-chloro-4-fluorophenyl)carbamoyl)-10-methyl-11-oxo-1,3,4,7,8,9,10,11-octahydro-2H-pyrido[4′,3′:3,4]pyrazolo[1,5-a][1,4]1diazepin-8-yl)acetate], the EC50 lay in the range of 0.1 to 0.5 µM.

As for `CN1CC(CCO)Cn2nc3c(c2C1=O)CN(C(=O)Nc1ccc(F)c(Cl)c1)CC3` (centres unmarked) [Compound 029], the concentration giving a half-maximal response (EC50) fell in the range of 0.1 to 0.5 µM.

On to `CCOC(=O)C1CN(C)C(=O)c2c3c(nn2C1)CCN(C(=O)Nc1ccc(F)c(Cl)c1)C3` (centres unmarked) [Compound 030, ethyl 2-((3-chloro-4-fluorophenyl)carbamoyl)-10-methyl-11-oxo-2,3,4,7,8,9,10,11-octahydro-1H-pyrido[4′,3′:3,4]pyrazolo[1,5-a][1,4]diazepine-8-carboxylate], for which the EC50 is more than 1 µM.

`CNC(=O)C1CN(C)C(=O)c2c3c(nn2C1)CCN(C(=O)Nc1ccc(F)c(Cl)c1)C3` (centres unmarked) [Compound 031, N2-(3-chloro-4-fluorophenyl)-N8,10-dimethyl-11-oxo-1,3,4,7,8,9,10,11-octahydro-2H-pyrido[4′,3′:3,4]pyrazolo[1,5-a][1,4]diazepine-2,8-dicarboxamide]: the EC50 fell in the range of 0.001 to 0.1 µM.

Regarding `CN(C)C(=O)C1CN(C)C(=O)c2c3c(nn2C1)CCN(C(=O)Nc1ccc(F)c(Cl)c1)C3` (centres unmarked) [Compound 032, N2-(3-chloro-4-fluorophenyl)-N8,N8,10-trimethyl-11-oxo-1,3,4,7,8,9,10,11-octahydro-2H-pyrido[4′,3′:3,4]pyrazolo [1,5-a][1,4]diazepine-2,8-dicarboxamide], the EC50 lay within 0.1 to 0.5 µM.

As for `CN1CC(C(C)(C)O)Cn2nc3c(c2C1=O)CN(C(=O)Nc1ccc(F)c(Cl)c1)CC3` (centres unmarked) [Compound 033, N-(3-chloro-4-fluorophenyl)-8-(2-hydroxypropan-2-yl)-10-methyl-11-oxo-3,4,8,9,10,11-hexahydro-1H-pyrido[4′,3′:3,4]pyrazolo[1,5-a][1,4]diazepine-2 (7H)-carboxamide], the EC50 is 0.001 to 0.1 µM.

For the molecule `CC(O)C1CN(C)C(=O)c2c3c(nn2C1)CCN(C(=O)Nc1ccc(F)c(Cl)c1)C3` (centres unmarked) [Compound 034, N-(3-chloro-4-fluorophenyl)-8-(1-hydroxyethyl)-10-methyl-11-oxo-1,3,4,7,8,9,10,11-octahydro-2H-pyrido[4′,3′:3,4]pyrazolo[1,5-a][1,4]diazepine-2-carboxamide], the half-maximal effective concentration (EC50) lay within 0.1 to 0.5 µM.

As for `CCC(O)C1CN(C)C(=O)c2c3c(nn2C1)CCN(C(=O)Nc1ccc(F)c(Cl)c1)C3` (centres unmarked) [Compound 035], the EC50 was 0.001 to 0.1 µM.

Take `CN1CC(C(O)C2CC2)Cn2nc3c(c2C1=O)CN(C(=O)Nc1ccc(F)c(Cl)c1)CC3` (centres unmarked) [Compound 036]: the EC50 was in the range of 0.001 to 0.1 µM.

With `CN1CC(C(F)F)Cn2nc3c(c2C1=O)CN(C(=O)Nc1ccc(F)c(Cl)c1)CC3` (centres unmarked) [Compound 037, N-(3-chloro-4-fluorophenyl)-8-(difluoromethyl)-10-methyl-11-oxo-1,3,4,7,8,9,10,11-octahydro-2H-pyrido[4′,3′:3,4]pyrazolo[1,5-a][1,4]diazepine-2-carboxamide], the EC50 lay in the range of 0.001 to 0.1 µM.

Regarding `O=C(Nc1ccc(F)c(Cl)c1)N1CCc2nn3c(c2C1)C(=O)N(CC(F)F)CCC3` [Compound 038, N-(3-chloro-4-fluorophenyl)-10-(2,2-difluoroethyl)-11-oxo-1,3,4,7,8,9,10,11-octahydro-2H-pyrido[4′,3′:3,4]pyrazolo[1,5-a][1,4]diazepine-2-carboxamide], the EC50 lay in the range of 0.001 to 0.1 µM.

Take `CC1CCn2nc3c(c2C(=O)N1C)CN(C(=O)Nc1ccc(F)c(Cl)c1)CC3` (centres unmarked) [Compound 039, N-(3-chloro-4-fluorophenyl)-9,10-dimethyl-11-oxo-1,3,4,7,8,9,10,11-octahydro-2H-pyrido[4′,3′:3,4]pyrazolo[1,5-a][1,4]diazepine-2-carboxamide]: the EC50 lay within 0.001 to 0.1 µM.

In the case of `COC(=O)c1cn2nc3c(c2c(=O)n1C)CN(C(=O)Nc1ccc(F)c(Cl)c1)CC3` [Compound 040, methyl 2-((3-chloro-4-fluorophenyl)carbamoyl)-9-methyl-10-oxo-1,2,3,4,9,10-hexahydropyrido[4′,3′:3,4]pyrazolo[1,5-a]pyrazine-8-carboxylate], the EC50 lay in the range of 0.1 to 0.5 µM.

Consider `Cn1c(CO)cn2nc3c(c2c1=O)CN(C(=O)Nc1ccc(F)c(Cl)c1)CC3` [Compound 041, N-(3-chloro-4-fluorophenyl)-8-(hydroxymethyl)-9-methyl-10-oxo-3,4,9,10-tetrahydropyrido[4′,3′:3,4]pyrazolo[1,5-a]pyrazine-2 (1H)-carboxamide], for which the EC50 lay in the range of 0.001 to 0.1 µM.

As to `Cn1c(C(=O)O)cn2nc3c(c2c1=O)CN(C(=O)Nc1ccc(F)c(Cl)c1)CC3` [Compound 042, 2-((3-chloro-4-fluorophenyl)carbamoyl)-9-methyl-10-oxo-1,2,3,4,9,10-hexahydropyrido[4′,3′:3,4]pyrazolo[1,5-a]pyrazine-8-carboxylic acid], the EC50 was more than 1 µM.

With `COC(=O)C1Cn2nc3c(c2C(=O)N1C)CN(C(=O)Nc1ccc(F)c(Cl)c1)CC3` (centres unmarked) [Compound 043, methyl 2-((3-chloro-4-fluorophenyl)carbamoyl)-9-methyl-10-oxo-1,2,3,4,7,8,9,10-octahydropyrido[4′,3′:3,4]pyrazolo[1,5-a]pyrazine-8-carboxylate], the EC50 fell in the range of 0.1 to 0.5 µM.

Regarding `CN1C(=O)c2c3c(nn2CC1CO)CCN(C(=O)Nc1ccc(F)c(Cl)c1)C3` (centres unmarked) [Compound 044, N-(3-chloro-4-fluorophenyl)-8-(hydroxymethyl)-9-methyl-10-oxo-3,4,7,8,9,10-hexahydropyrido[4′,3′:3,4]pyrazolo[1,5-a]pyrazine-2 (1H)-carboxamide], the EC50 was in the range of 0.001 to 0.1 µM.

For `CN1CCn2nc3c(c2C1=O)CN(C(=O)Nc1ccc(F)c(Cl)c1)CC3` [Compound 045, N-(3-chloro-4-fluorophenyl)-9-methyl-10-oxo-3,4,7,8,9,10-hexahydropyrido[4′,3′:3,4]pyrazolo [1,5-a]pyrazine-2 (1H)-carboxamide], the EC50 was in the range of 0.001 to 0.1 µM.

As for `CN1CCCn2nc3c(c2C1)CN(C(=O)Nc1ccc(F)c(Cl)c1)CC3` [Compound 046, N-(3-chloro-4-fluorophenyl)-10-methyl-1,3,4,7,8,9,10,11-octahydro-2H-pyrido[4′,3′:3,4]pyrazolo[1,5-a][1,4]diazepine-2-carboxamide], the EC50 was more than 1 µM.

As for `CN1CC(C(O)CC2CC2)Cn2nc3c(c2C1=O)CN(C(=O)Nc1ccc(F)c(Cl)c1)CC3` (centres unmarked) [Compound 047, N-(3-chloro-4-fluoro-phenyl)-8-(2-cyclopropyl-1-hydroxy-ethyl)-10-methyl-1-oxo-1,3,4,7,8,9-hexahydropyrido[2,3]pyrazolo[2,4-b][1,4]diazepine-2-carboxamide], the EC50 is 0.001 to 0.1 µM.

Regarding `C[C@@H]1Cc2nn3c(c2CN1C(=O)Nc1ccc(F)c(Cl)c1)C(=O)N(CC(C)(C)O)CCC3` [Compound 048], the EC50 lay in the range of 0.1 to 0.5 µM.

On to `C[C@@H]1Cc2nn3c(c2CN1C(=O)Nc1ccc(F)c(Cl)c1)C(=O)N(CCO)CCC3` [Compound 049, (3R)— N-(3-chloro-4-fluorophenyl)-10-(2-hydroxyethyl)-3-methyl-11-oxo-1,3,4,7,8,9,10,11-octahydro-2H-pyrido[4′,3′:3,4]pyrazolo[1,5-a][1,4]diazepine-2-carboxamide], for which the EC50 lay within 0.001 to 0.1 µM.

With `CNC1CN(C)C(=O)c2c3c(nn2C1)CCN(C(=O)Nc1ccc(F)c(Cl)c1)C3` (centres unmarked) [Compound 050, N-(3-chloro-4-fluorophenyl)-10-methyl-8-(methylamino)-11-oxo-1,3,4,7,8,9,10,11-octahydro-2H-pyrido[4′,3′:3,4]pyrazolo[1,5-a][1,4]diazepine-2-carboxamide], the EC50 fell in the range of 0.1 to 0.5 µM.

`O=C(Nc1ccc(F)c(Cl)c1)N1CCc2nn3c(c2C1)C(=O)N(CC(F)(F)F)CC(CO)C3` (centres unmarked) [Compound 051, N-(3-chloro-4-fluorophenyl)-8-(hydroxymethyl)-11-oxo-10-(2,2,2-trifluoroethyl)-1,3,4,7,8,9,10,11-octahydro-2H-pyrido[4′,3′: 3,4]pyrazolo[1,5-a][1,4]diazepine-2-carboxamide]: the EC50 lay within 0.001 to 0.1 µM.

Take `CCOC(=O)C1(C)CN(C)C(=O)c2c3c(nn2C1)CCN(C(=O)Nc1ccc(F)c(Cl)c1)C3` (centres unmarked) [Compound 052, ethyl 2-((3-chloro-4-fluorophenyl)carbamoyl)-8,10-dimethyl-11-oxo-1,3,4,7,8,9,10,11-octahydro-2H-pyrido[4′,3′:3,4]pyrazolo[1,5-a][1,4]diazepine-8-carboxylate]: the EC50 is 0.1 to 0.5 µM.

With `CN1CC(C)(CO)Cn2nc3c(c2C1=O)CN(C(=O)Nc1ccc(F)c(Cl)c1)CC3` (centres unmarked) [Compound 053, N-(3-chloro-4-fluorophenyl)-8-(hydroxymethyl)-8,10-dimethyl-11-oxo-1,3,4,7,8,9,10,11-octahydro-2H-pyrido[4′,3′:3,4]pyrazolo[1,5-a][1,4]diazepine-2-carboxamide], the EC50 was 0.001 to 0.1 µM.

As for `CN1CC(N2CCC(F)(F)C2)Cn2nc3c(c2C1=O)CN(C(=O)Nc1ccc(F)c(Cl)c1)CC3` (centres unmarked) [Compound 054, N-(3-chloro-4-fluorophenyl)-8-(3,3-difluoropyrrolidin-1-yl)-10-methyl-11-oxo-1,3,4,7,8,9,10,11-octahydro-2H-pyrido[4′,3′:3,4]pyrazolo[1,5-a][1,4]diazepine-2-carboxamide], the EC50 is 0.1 to 0.5 µM.
